# Source: patent US12383579B2, “Materials and methods of using an inhibitor of plasminogen activation to treat anastomotic leak” (THE UNIVERSITY OF CHICAGO, priority 2018, dated 2025)
# “Also recorded” adds a separate entry of the source.
# Experiments:
# [1] = target: FITC-PLG at the anastomosis (Homo sapiens, UniProt P00747); assay: In vivo deposition of FITC-PLG at surgical anastomoses; design: species or system mice; conditions: TXA enema one hour prior to sacrifice, 48 and 72 hours post-operative
# Protocol: Mice underwent anastomosis without exposure to antibiotics or exogenous pathogen followed by intraperitoneal injection with FITC-PLG and either TXA or vehicle control enema one hour prior to sacrifice. Three animals per treatment group were sacrificed at various time points. […] Either TXA or water vehicle enema was administered along with systemic FITC-PLG injection one hour prior to sacrifice. […] Total FITC-PLG fluorescent signal was quantified in all mice as integrated density/area. […] A segment of anastomotic tissue collected from a mouse that received no enemas at 24 hours post-operative was observed. FITC-PLG fluorescence intensity is spatially quantified across the length of the tissue.
# Mean FITC staining intensity was quantified as integrated density/area at the anastomotic sites of three mice per treatment group at the 48- and 72-hour time points.
# [2] = system: FITC-labeled PLG binding to E. faecalis V583 cell surface; assay: Flow cytometric evaluation of FITC-PLG binding to E. faecalis; design: species or system Enterococcus faecalis; conditions: for geometric mean fluorescence intensity of cells (surface-bound FITC-PLG): 1768 in the absence of TXA
# Protocol: Flow cytometric evaluation of PLG binding. PLG binding to the bacterial surface was measured as previously described, with minor modifications (52′). Bacteria were grown overnight in TY. Cultures were diluted to a final density of roughly 8×10^6 CFU/mL. […] Cells were pelleted, washed three times with PBS, and resuspended. Fluorescence was analyzed using an Imagestream ISX flow cytometer. Enterococci were detected using log-forward and log-side scatter dot plots, and a gating region was set to exclude debris and aggregates of bacteria. Bacteria were analyzed for FITC-range fluorescence using log-scale amplification, of which the geometric mean fluorescence intensity was recorded as a measure for PLG binding. FITC-range fluorescent signal was confirmed by light and fluorescent microscopy of each event.
# Flow cytometry was performed after incubation of V583 with FITC-labeled PLG as before. 80.9% of cells reached a subjectively determined threshold for surface-bound FITC-PLG. […] The effect was concentration-dependent and statistically significant (FIG. 37D).
# [3] = system: collagenolytic E. faecalis; assay: Quantitative culture of collagenolytic E. faecalis after V583-induced AL
# Sequence of FITC-PLG at the anastomosis (P00747 20-810 limits assumed): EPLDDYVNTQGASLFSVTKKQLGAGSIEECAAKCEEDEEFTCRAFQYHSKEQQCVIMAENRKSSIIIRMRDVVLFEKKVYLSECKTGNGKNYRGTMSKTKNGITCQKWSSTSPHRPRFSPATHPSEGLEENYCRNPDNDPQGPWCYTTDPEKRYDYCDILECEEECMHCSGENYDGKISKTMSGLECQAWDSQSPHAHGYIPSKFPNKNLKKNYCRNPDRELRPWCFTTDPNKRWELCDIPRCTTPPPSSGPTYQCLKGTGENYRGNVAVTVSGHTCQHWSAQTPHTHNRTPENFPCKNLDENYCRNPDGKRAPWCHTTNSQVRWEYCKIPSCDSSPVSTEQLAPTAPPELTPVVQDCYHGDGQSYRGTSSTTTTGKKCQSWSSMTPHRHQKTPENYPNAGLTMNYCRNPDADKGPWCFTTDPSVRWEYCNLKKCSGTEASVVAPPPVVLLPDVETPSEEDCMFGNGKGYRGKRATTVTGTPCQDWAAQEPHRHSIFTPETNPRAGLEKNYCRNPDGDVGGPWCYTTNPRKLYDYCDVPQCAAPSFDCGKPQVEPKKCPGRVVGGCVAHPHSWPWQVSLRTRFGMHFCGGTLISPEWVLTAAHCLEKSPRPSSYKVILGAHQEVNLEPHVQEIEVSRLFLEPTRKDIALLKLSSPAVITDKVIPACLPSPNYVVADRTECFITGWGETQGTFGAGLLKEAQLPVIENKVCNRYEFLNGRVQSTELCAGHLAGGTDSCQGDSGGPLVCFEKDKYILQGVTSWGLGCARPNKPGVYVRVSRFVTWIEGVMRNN
smiles,measurement,setting,value
"NC[C@H]1CC[C@H](C(=O)O)CC1 [TXA, tranexamic acid]",FITC-PLG positivity at the anastomosis (integrated density/area),[1],significantly decreased the amount of FITC-PLG positivity at the anastomosis at both time points
same,geometric mean fluorescence intensity of cells (surface-bound FITC-PLG),[2]; 2 mM TXA,936
same,geometric mean fluorescence intensity of cells (surface-bound FITC-PLG),[2]; 10 mM TXA,77
same,surface binding of FITC-PLG by E. faecalis,[2]; flow cytometry and single-cell microscopy,decrease in surface binding of FITC-PLG; also recorded: Fluorescent signal was not present
same,collagenolytic E. faecalis in anastomotic luminal contents,"[3]; POD 3, versus water enema",significantly decreased
same,CFU/mg collagenolytic E. faecalis in anastomotic tissue,"[3]; POD 8, versus water enema",significantly fewer
same,collagenolytic E. faecalis in anastomotic luminal contents,"[3]; POD 8, versus water enema",persisted but did not reach statistical significance
same,CFU/mg collagenolytic E. faecalis in anastomotic tissue,"[3]; day 3, versus water enema",no difference was observed
